According to patent US20090305994A1, “Compounds Modulating Vegf Receptor and Uses Thereof” (priority 2005, published 2009):
One block for each molecule: values may come before it. No end group written: not given here.

Columns and labels:
HUVEC cells = assay: Binding of fluorescein-conjugated MA peptide to HUVEC cells (flow cytometry); parameters: species or system human; conditions: fluorescein-conjugated peptide, FACS
Experimental: HUVE cells (1×10^4/cm2) were incubated with 500 nM MA peptide conjugated with fluorescein and competed with increasing amount of VEGF at 30 min at 4° C. in the dark. Then, cell fluorescence was analyzed by flow cytometry.
(§1) Fluorescence—Cells (3×105) were incubated with saturating amounts of FITC-conjugated and the other indicated reagents, 5 min at 4° C. in the dark. After washing with PBS, the cells were resuspended in PBS and analyzed with a FACScan (Becton Dickinson) flow cytometer.
Binding of MA peptide to HUVEC cells. To verify that MA peptide bound to HUVEC cells, we incubated the cells with MA or a scrambled peptide conjugated with fluorescein and analyze the binding by FACS.

HUVEC [1] = assay: FITC-Annexin V binding of HUVEC by flow cytometry; format: cell-based, human; conditions: HUVEC 24 h, VEGF 20 ng/ml plus MA peptide 100 ng/ml
Experimental: (§2) (a) HUVE cells (1×10^4/cm2) were incubated whit VEGF (20 ng/ml) in the absence or presence of MA peptide (100 ng/ml), in duplicates, for 30 min. Then cell lysates were obtained and analysed in Western blot with anti-phospho-ERK antibody. b) HUVE cells (1×10^4/cm2) were incubated with VEGF (20 ng/ml) in the absence or presence of MA peptide (100 ng/ml), in triplicates, for 24 h, at 37° C. in a 5% CO2 atmosphere. Then FITC-Annexin V binding was analyzed by flow cytometry.
as §1
Effect of MA peptide on the appearance of annexin V+ cells in cultures with VEGF. Apoptotic cells externalize phosphatidylserine, that is bound by annexin V (Steensma D P, et al., Methods Mol. Med. 2003; 85: 323-32).

ERK1/2 kinase = assay: VEGF-induced activation of ERK kinase in HUVEC (western blot); format: cell-based, human; conditions: VEGF 20 ng/ml plus MA 100 ng/ml, 30 min
Experimental: as §2
Western blotting. Cell total protein lysates were prepared in sample buffer (2% sodium-dodecyl-sulphate, 10% glycerol, 2% mercaptoethanol and 60 mM Tris-HCl pH 6.8 in demineralized water) on ice. Lysates (25 μg) were run on 12% SDS-PAGE gels and electrophoretically transferred to nitrocellulose. Nitrocellulose blots were blocked with 5% BSA in Tris Buffer Saline Tween-20 (TBST) buffer [20 mM Tris-HCl (pH 7.4), 500 mM NaCl, and 0.01% Tween 20] and incubated with primary antibody in TBST-5% BSA overnight at 4° C. Immunoreactivity was detected by sequential incubation with horseradish peroxidase-conjugated secondary antibody and enhanced chemiluminescence reagents following standard protocols (Amersham Bioscience, UK).
Inhibition of VEGF-induced activation of ERK kinase by MA peptide. […] We therefore investigated whether MA peptide binding to the cells could block ERK activation by VEGF.

HUVEC [2] = assay: Analysis of caspase 3 activity in HUVEC deprived of FBS; format: cell-based, human; conditions: VEGF 20 ng/ml plus peptide 20 ng/ml, 4 h
Experimental: HUVE cells (1×10^4/cm2) were incubated in medium without FBS, in the absence or presence of VEGF (20 ng/ml) and QK (5 ng/ml), at 37° C. in a 5% CO2 atmosphere. After 4 h, caspase 3 activity was determined. Results are expressed as mean values of triplicates.
HUVE cells (1×10^4/cm2) were incubated in medium without FBS, in the absence or presence of VEGF (20 ng/ml) and the indicated peptides (20 ng/ml), at 37° C. in a 5% CO2 atmosphere. After 4 h, caspase 3 activity was determined. Results are expressed as mean values of triplicates.
(§3) Analysis of caspase 3 activity—Cells (2×104) were lysed in a buffer containing Hepes 50 mM, DTT 1 mM, EDTA 0.1 mM, NP-40 0.1%, CHAPS 0.1% and protein quantitation determined. Protein aliquots (20 μg) were incubated with 20 μM Ac-DEVD-AMC (Pharmingen, San Diego, Calif.) in a buffer containing Hepes 50 mM, DTT 1 mM, EDTA 0.1 mM, NP-40 0.1%, CHAPS 0.1%, at 37° C. for 3 h. Caspase 3 activity was determined in the cytosolic extracts by analysing the release of 7-amino-4-methylcoumarin (AMC) from N-acetyl-DEVD-AMC (Thornberry N A, et al. Nature 1992; 356:768-74); the release of AMC was monitored in a spectrofluorometer with an excitation wavelength of 380 nm and emission wavelength of 440 nm.
as §3, with “356: 768-74);” for “356:768-74);”

WKY rats = assay: Ischemic hindlimb model, digital angiographies and blood flow determination; format: in vivo, rat; conditions: 14 days
KDR = target: T1, KDR (Bos taurus, UniProt A0AAA9SPC9); assay: KDR activation (immunoprecipitation, phospho-tyrosine western blot) in BAEC; format: cell-based, bovine; conditions: 15 minutes of exposure
T1 construct: we immunoprecipitated total KDR and Flt-1 from BAEC whole extracts; endogenous in cells; host or cells: BAEC (bovine aorta endothelial cells, SV40-immortalized)
Experimental: (§4) VEGF receptors binding and activation. a) VEGF competitive binding on BAEC. 1 μg of membrane protein was plated with QK and [^125I]-VEGF (500000 cpm, 10^−10 M). b) KDR activation. After stimulation total KDR was immunoprecipitated from a whole-cell protein extracts and phospho-tyrosine was visualized by a specific antibody, anti-rabbit HRP-conjugated secondary antibody and standard chemiluminescence. c) Flt-1 activation. After stimulation total Flt-1 was immunoprecipitated from a whole-cell protein extracts and phospho-tyrosine was visualized by specific antibody, anti-rabbit HRP-conjugated secondary antibody and standard chemiluminescence.
(§5) Western blot. Cells were plated on six-well dishes and serum starved overnight. On the next day, cells were treated with different amount of peptide in absence or in presence of VEGF165 for 15 minutes at 37° C. and then dissolved in RIPA-SDS buffer (50 mM Tris-HCl (pH 7.5), 150 mM NaCl, 1% NP-40, 0.25% deoxycholate, 9.4 mg/50 ml sodium orthovanadate, […]). In some experiments, total KDR and Flt-1 were immunoprecipitated from an equal amount of whole-cell protein extracts using protein A/G agarose beads conjugated with antibodies raised against total KDR or Flt-1 (R&D). Proteins from whole-cell extracts or immunocomplexes were resolved by PAGE and transferred to nitrocellulose. […]

Flt-1 = target: T2, Flt-1 (Bos taurus, UniProt F1MDD9); assay: Flt-1 activation (immunoprecipitation, phospho-tyrosine western blot) in BAEC; format: cell-based, bovine; conditions: 15 minutes of exposure
T2 construct: we immunoprecipitated total KDR and Flt-1 from BAEC whole extracts; endogenous in cells; host or cells: BAEC (bovine aorta endothelial cells, SV40-immortalized)
T2 sequence (F1MDD9 1-1251): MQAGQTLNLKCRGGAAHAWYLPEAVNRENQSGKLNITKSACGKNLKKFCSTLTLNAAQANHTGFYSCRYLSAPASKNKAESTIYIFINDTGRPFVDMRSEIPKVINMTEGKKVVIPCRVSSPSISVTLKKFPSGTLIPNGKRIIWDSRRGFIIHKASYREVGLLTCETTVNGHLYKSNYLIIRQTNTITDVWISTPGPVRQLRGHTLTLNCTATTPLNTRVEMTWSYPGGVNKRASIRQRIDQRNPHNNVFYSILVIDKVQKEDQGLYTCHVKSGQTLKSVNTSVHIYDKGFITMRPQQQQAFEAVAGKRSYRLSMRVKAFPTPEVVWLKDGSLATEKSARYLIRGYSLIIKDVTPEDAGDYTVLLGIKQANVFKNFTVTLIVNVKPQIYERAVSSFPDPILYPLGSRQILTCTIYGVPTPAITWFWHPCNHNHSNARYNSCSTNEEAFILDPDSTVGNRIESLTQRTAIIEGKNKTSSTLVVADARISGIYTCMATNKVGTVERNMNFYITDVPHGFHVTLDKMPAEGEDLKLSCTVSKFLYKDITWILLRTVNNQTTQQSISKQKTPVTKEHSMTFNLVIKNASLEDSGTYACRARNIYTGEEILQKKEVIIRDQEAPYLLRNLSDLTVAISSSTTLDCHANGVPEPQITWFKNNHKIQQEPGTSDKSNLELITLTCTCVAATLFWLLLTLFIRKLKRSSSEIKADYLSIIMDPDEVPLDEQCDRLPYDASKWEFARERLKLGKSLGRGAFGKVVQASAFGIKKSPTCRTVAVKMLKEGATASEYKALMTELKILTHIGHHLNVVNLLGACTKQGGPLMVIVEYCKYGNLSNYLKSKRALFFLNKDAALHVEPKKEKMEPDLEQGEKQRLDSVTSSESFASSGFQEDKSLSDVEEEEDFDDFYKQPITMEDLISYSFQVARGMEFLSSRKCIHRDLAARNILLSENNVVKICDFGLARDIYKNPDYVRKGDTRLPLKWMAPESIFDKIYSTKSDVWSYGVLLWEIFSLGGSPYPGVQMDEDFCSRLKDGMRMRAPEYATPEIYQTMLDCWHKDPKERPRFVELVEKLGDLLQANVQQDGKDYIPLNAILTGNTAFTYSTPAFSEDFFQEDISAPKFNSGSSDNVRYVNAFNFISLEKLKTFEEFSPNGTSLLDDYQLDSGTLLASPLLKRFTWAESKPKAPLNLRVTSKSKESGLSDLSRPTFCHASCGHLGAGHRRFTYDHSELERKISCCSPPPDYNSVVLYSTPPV
Experimental: as §4, §5

RB = RB phosphorylation (western blot); format: cell-based, bovine; conditions: 12 and 18 hours; QK 10^-6 M, VEGF165 100 ng/ml, VEGF 15 10^-6 M
Experimental: Effect of QK on cell proliferation. a) DNA synthesis. BAEC were incubated in DMEM with [^3H]-thymidine and QK in absence or in presence of VEGF165 (100 ng/ml). After 24 hours cells were fixed and lysed. Scintillation liquid was added and [^3H]-thymidine incorporation was evaluated. b) Cell proliferation. BAEC were stimulated with the indicated amount of QK in absence or in presence of VEGF165 (100 ng/ml). Cell number was determined at 24 hours after stimulation. c) RB phosphorylation. p-RB was evaluated at 12 and 18 hours after stimulation with QK (10^-6M), VEGF165 (100 ng/ml) and VEGF 15 (10^−6 M).
Cells proliferation assay. Cells were seeded at a density of 10000 per well in six well plates, serum starved overnight and then stimulated with QK (10-12 to 10^−6 M) in absence or in presence of VEGF165. Cell number was determined at 24 hours after stimulation. The p-RB, was evaluated by western blot 12 and 18 hours after stimulation with QK (10^−6 M), VEGF165 and VEGF 15 (10^−6 M).

[3] = target: VEGF receptors on bovine aorta endothelial cell (BAEC) membranes; assay: displacement of [125I]-VEGF from BAEC membranes (1 ug membrane protein) by QK at 10^-13 to 10^-8 M, gamma counter

T1 sequence (A0AAA9SPC9 20-1356): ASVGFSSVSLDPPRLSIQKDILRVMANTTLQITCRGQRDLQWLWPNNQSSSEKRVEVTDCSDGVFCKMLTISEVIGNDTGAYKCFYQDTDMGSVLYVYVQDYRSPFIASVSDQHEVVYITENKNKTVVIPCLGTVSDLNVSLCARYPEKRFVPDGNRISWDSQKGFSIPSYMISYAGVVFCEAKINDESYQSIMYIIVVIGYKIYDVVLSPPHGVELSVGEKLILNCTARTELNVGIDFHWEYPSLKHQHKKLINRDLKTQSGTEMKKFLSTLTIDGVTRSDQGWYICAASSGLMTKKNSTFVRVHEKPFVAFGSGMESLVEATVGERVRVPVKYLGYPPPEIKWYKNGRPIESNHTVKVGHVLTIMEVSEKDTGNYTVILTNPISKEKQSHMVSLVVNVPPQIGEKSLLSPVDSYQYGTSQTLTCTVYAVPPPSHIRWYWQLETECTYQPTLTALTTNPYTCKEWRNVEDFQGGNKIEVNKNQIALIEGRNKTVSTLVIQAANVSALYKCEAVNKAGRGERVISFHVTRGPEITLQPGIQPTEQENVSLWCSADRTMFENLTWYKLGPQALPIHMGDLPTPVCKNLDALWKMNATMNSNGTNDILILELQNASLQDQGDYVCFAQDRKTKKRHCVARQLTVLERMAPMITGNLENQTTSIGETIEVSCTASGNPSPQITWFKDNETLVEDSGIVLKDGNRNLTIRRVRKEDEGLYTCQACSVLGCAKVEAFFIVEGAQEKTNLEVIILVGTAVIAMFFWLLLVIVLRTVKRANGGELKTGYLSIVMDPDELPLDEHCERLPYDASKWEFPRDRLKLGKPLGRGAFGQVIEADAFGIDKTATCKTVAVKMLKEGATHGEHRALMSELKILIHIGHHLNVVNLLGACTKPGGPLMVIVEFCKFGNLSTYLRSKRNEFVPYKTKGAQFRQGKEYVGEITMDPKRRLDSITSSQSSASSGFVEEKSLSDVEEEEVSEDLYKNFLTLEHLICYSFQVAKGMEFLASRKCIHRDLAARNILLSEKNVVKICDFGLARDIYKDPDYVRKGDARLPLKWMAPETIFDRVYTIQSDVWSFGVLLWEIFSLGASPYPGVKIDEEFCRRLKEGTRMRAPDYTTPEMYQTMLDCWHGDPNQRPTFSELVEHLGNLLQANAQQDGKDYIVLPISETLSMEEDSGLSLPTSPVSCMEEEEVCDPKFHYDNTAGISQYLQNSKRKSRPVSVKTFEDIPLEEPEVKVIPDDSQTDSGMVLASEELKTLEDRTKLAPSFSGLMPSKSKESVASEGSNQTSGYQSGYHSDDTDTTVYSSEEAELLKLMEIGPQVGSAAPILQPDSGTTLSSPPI

effect on VEGF anti-apoptotic activity (caspase 3) (HUVEC [2]): abolished
Molecule: KLTWMELYQLAYKGI (KLTWMELYQLAYKGI-NH2) [MA]
binding to HUVEC cells (HUVEC cells): specifically bound to the cells in a dose-dependent manner
annexin V+ cells (HUVEC [1]): > 22%
levels of phosphorylated ERK1/2 kinase with VEGF in the presence of peptide (ERK1/2 kinase): highly reduced

Molecule: VEGF165: Vascular Endothelial Growth Factor, most abundant isoform, 45 KDa glycoprotein (Alexis), positive control in Example 1
BEADS Ischemic to non ischemic (WKY rats; dyed beads dilution, muscle ratio, infusion 10^-7 M): 0.97 ± 0.12
ANGIOGRAPHY Number of TFC (WKY rats; ischemic hindlimb, chronic intrafemoral artery infusion 10^-7 M): 18 ± 2
phospho-KDR levels (KDR): caused the reduction in the levels of phospho-KDR at the membrane
Flt-1 phosphorylation (Flt-1): increases Flt-1 phosphorylation
phosphorylation of the cyclin RB (RB): enhanced phosphorylation of the cyclin RB

Kd [3]: 316 pM
Molecule: Ac-KLTWQELYQLKYKGI-NH2 [QK peptide (SEQ ID No.8)]
